{"source": "paper PMC8448937", "about": "(Journal of clinical pharmacy and therapeutics, 2021)", "key": {"[1]": {"conditions": "in vivo"}, "[2]": {"conditions": "previous studies incl. initial analysis of P1026s data; cited from earlier work"}, "[3]": {"conditions": "non-pregnant adults; cited from earlier work"}, "clinical": {"experiment": "clinical", "conditions": "female, human, in vivo"}, "[4]": {"conditions": "for CL/F (oral clearance): all women not receiving lopinavir/ritonavir, median; for C0: pre-dose"}, "CYP3A4": {"tested_on": "CYP3A4", "conditions": "cited from earlier work"}, "[5]": {"conditions": "postpartum, with LPV/r, median (IQR)"}, "[6]": {"conditions": "postpartum, without LPV/r, other regimens, median (IQR)"}, "[7]": {"conditions": "postpartum, without LPV/r, with ATV/r, median (IQR)"}, "[8]": {"conditions": "third trimester, with LPV/r, median (IQR)"}, "[9]": {"conditions": "third trimester, without LPV/r, other regimens, median (IQR)"}, "[10]": {"conditions": "third trimester, without LPV/r, with ATV/r, median (IQR)"}}, "note": "Like-named read-outs stand apart in the source and are kept apart here.", "data": [{"compound": "C[C@H](Cn1cnc2c(N)ncnc21)OCP(=O)(O)O", "note": "[Tenofovir]", "values": [{"measurement": "AUC0–24 (exposure) lower in third trimester compared to postpartum", "setting": "[1]; female, human", "value": 27, "unit": "%"}, {"measurement": "decrease in AUC0–24 during third trimester compared to postpartum", "setting": "[1]; female, human", "value": 25, "unit": "%"}, {"measurement": "increase in CL/F during third trimester compared to postpartum", "setting": "[1]; female, human", "value": 33, "unit": "%"}, {"measurement": "oral clearance higher in third trimester compared to postpartum", "setting": "[1]; female, human, po", "value": 27, "unit": "%"}, {"measurement": "differences in AUC0–24, third trimester vs postpartum", "setting": "[1]", "value": "did not reach statistical significance"}, {"measurement": "clearance higher in third trimester of pregnancy compared to postpartum", "setting": "[2]", "value": "22–39%"}, {"measurement": "exposure lower in third trimester of pregnancy compared to postpartum", "setting": "[2]", "value": "20–33%"}, {"measurement": "exposure increased with concomitant lopinavir/ritonavir", "setting": "[3]", "value": 32, "unit": "%"}, {"measurement": "AUC(0-t)", "setting": "clinical; AUC0–24", "value": 2200, "unit": "ng·h/mL"}, {"measurement": "Cmax", "setting": "clinical; Cmax", "value": 257, "unit": "ng/mL"}, {"measurement": "concentration at 24 h", "setting": "[4]; female, human, in vivo, C24, third trimester, without LPV/r, with ATV/r, 24 hour post-dose, median (IQR)", "value": 47, "unit": "ng/mL"}, {"measurement": "half-life", "setting": "[4]; female, human, in vivo, t1/2, postpartum, with LPV/r, median (IQR)", "value": 12.5, "unit": "h"}, {"measurement": "half-life", "setting": "[4]; female, human, in vivo, t1/2, third trimester, with LPV/r, median (IQR)", "value": 17.5, "unit": "h"}, {"measurement": "CL/F (oral clearance)", "setting": "[4]; postpartum", "value": 48, "unit": "L/h"}, {"measurement": "CL/F", "setting": "[4]; [5]", "value": "49 (36 – 75) L/hr"}, {"measurement": "Vd/F", "setting": "[4]; [5]", "value": "1224 (643 – 1312) L/hr"}, {"measurement": "C0", "setting": "[4]; [5]", "value": "59.4 (5.0 – 77.8) ng/mL"}, {"measurement": "CL/F", "setting": "[4]; [6]", "value": "49 (30 – 58) L/hr"}, {"measurement": "Vd/F", "setting": "[4]; [6]", "value": "757 (514 – 1133) L/hr"}, {"measurement": "C0", "setting": "[4]; [6]", "value": "74 (50 – 118) ng/mL"}, {"measurement": "CL/F", "setting": "[4]; [7]", "value": "48 (38 – 63) L/hr"}, {"measurement": "Vd/F", "setting": "[4]; [7]", "value": "949 (676 – 1246) L/hr"}, {"measurement": "C0", "setting": "[4]; [7]", "value": "60 (31 – 93) ng/mL"}, {"measurement": "CL/F (oral clearance)", "setting": "[4]; third trimester", "value": 61, "unit": "L/h"}, {"measurement": "CL/F", "setting": "[4]; [8]", "value": "46 (40 – 60) L/hr"}, {"measurement": "Vd/F", "setting": "[4]; [8]", "value": "1103 (973 – 1312) L/hr"}, {"measurement": "C0", "setting": "[4]; [8]", "value": "70 (53 – 85) ng/mL"}, {"measurement": "CL/F", "setting": "[4]; [9]", "value": "57 (47 – 62) L/hr"}, {"measurement": "Vd/F", "setting": "[4]; [9]", "value": "1159 (1037 – 1709) L/hr"}, {"measurement": "t1/2", "setting": "[4]; [9]", "value": "15.9 (14.3 – 19.2) hr"}, {"measurement": "C0", "setting": "[4]; [9]", "value": "54 (42 – 67) ng/mL"}, {"measurement": "CL/F", "setting": "[4]; [10]", "value": "64 (57 – 85) L/hr"}, {"measurement": "Vd/F", "setting": "[4]; [10]", "value": "1284 (1120 – 2181) L/hr"}, {"measurement": "C0", "setting": "[4]; [10]", "value": "48 (36 – 59) ng/mL"}]}, {"compound": "CC(C)(C)NC(=O)[C@@H]1C[C@@H]2CCCC[C@@H]2CN1C[C@@H](O)[C@H](Cc1ccccc1)NC(=O)[C@H](CC(N)=O)NC(=O)c1ccc2ccccc2n1", "note": "[saquinavir]", "values": [{"measurement": "CYP3A4 inhibition", "setting": "CYP3A4", "value": "weak inhibition"}]}]}
